Test results: PubChem BioAssay (NCI)
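96-well plates; 48 h exposure; 5 concentrations. Endpoints by linear interpolation between flanking doses. Not reached: highest tested concentration assigned. The concentration for full growth arrest is given as TGI.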 Where a SMILES comes first, the peptide text is derived from it.

Legend:
Experiment in all cases: NCI tumour cell line growth inhibition, 48 h
CCRF-CEM leukemia = test system: CCRF-CEM leukemia
HCT-15 colon = test system: HCT-15 colon
HOP-62 NSCLC = test system: HOP-62 NSCLC
K-562 leukemia = test system: K-562 leukemia
MCF7 breast = test system: MCF7 breast
OVCAR-8 ovarian = test system: OVCAR-8 ovarian
PC-3 prostate = test system: PC-3 prostate
SK-MEL-2 melanoma = test system: SK-MEL-2 melanoma
SK-MEL-28 melanoma = test system: SK-MEL-28 melanoma
SK-MEL-5 melanoma = test system: SK-MEL-5 melanoma
SN12C renal = test system: SN12C renal
A498 renal = test system: A498 renal

| SMILES | TGI (CCRF-CEM leukemia) | TGI (HCT-15 colon) | TGI (HOP-62 NSCLC) | TGI (K-562 leukemia) | TGI (MCF7 breast) | TGI (OVCAR-8 ovarian) | TGI (PC-3 prostate) | TGI (SK-MEL-2 melanoma) | TGI (SK-MEL-28 melanoma) | TGI (SK-MEL-5 melanoma) | TGI (SN12C renal) | TGI (A498 renal) |
| --- | --- | --- | --- | --- | --- | --- | --- | --- | --- | --- | --- | --- |
| COC(=O)C1=C(C)NC(C)=C(C(=O)OC)C1c1ccc(/[N+]([O-])=C/c2ccccc2)cc1 | 48 µM | > 100 µM | > 100 µM | > 100 µM | 30.4 µM | 46.2 µM | > 100 µM | > 100 µM | 36.8 µM | > 100 µM | > 100 µM | – |
| CCN(CC)CCn1nc(N)c2nc3cc(Cl)ccc3nc21 | – | > 100 µM | > 100 µM | > 100 µM | > 100 µM | > 100 µM | > 100 µM | > 100 µM | > 100 µM | 74.1 µM | > 100 µM | > 100 µM |
| COC(=O)C1OC(Oc2cc(O)c3c(=O)cc(-c4ccc(O)cc4)oc3c2)C(O)C(O)C1O (centres undefined) | > 100 µM | > 100 µM | > 100 µM | > 100 µM | > 100 µM | > 100 µM | – | > 100 µM | > 100 µM | > 100 µM | > 100 µM | > 100 µM |
| CCN(CC)/C(Cl)=C(Cl)\C(=C1\Nc2ccc(OC)cc21)[N+](=O)[O-] | 93.6 µM | > 100 µM | > 100 µM | > 100 µM | > 100 µM | > 100 µM | > 100 µM | – | > 100 µM | > 100 µM | > 100 µM | > 100 µM |
| C=CCn1c(=O)n(CC=C)c(=O)n(CC=C)c1=O | > 100 µM | > 100 µM | > 100 µM | > 100 µM | – | > 100 µM | – | > 100 µM | > 100 µM | > 100 µM | > 100 µM | > 100 µM |
| COc1cc(/C=C2\C[C@H]3[C@@H]4CC=C5C[C@@H](O)CC[C@]5(C)[C@H]4CC[C@]3(C)C2=O)cc(OC)c1OC | – | > 100 µM | > 100 µM | > 100 µM | > 100 µM | > 100 µM | > 100 µM | 65.4 µM | > 100 µM | 31.9 µM | > 100 µM | > 100 µM |
| CC1(C)c2ccccc2C(=O)C12CCC(=O)CC2 | > 100 µM | > 100 µM | > 100 µM | > 100 µM | > 100 µM | > 100 µM | > 100 µM | > 100 µM | > 100 µM | – | > 100 µM | – |
| Cn1ccc(C(=O)NCCOCCNC(=O)c2ccn(C)c(=O)c2O)c(O)c1=O | – | > 100 µM | – | – | – | > 100 µM | > 100 µM | > 100 µM | > 100 µM | > 100 µM | > 100 µM | > 100 µM |
| CSC1=C(SC)SC(=C2SC3=C(SC(=C4SCCS4)S3)S2)S1 | > 100 µM | > 100 µM | > 100 µM | – | > 100 µM | > 100 µM | > 100 µM | > 100 µM | > 100 µM | > 100 µM | > 100 µM | – |
| O=C1C(Cl)C(c2ccccc2)N1n1cnc2ccccc2c1=O (centres undefined) | > 100 µM | > 100 µM | > 100 µM | > 100 µM | – | > 100 µM | – | > 100 µM | > 100 µM | > 100 µM | > 100 µM | – |
| CN(C)C(=O)OCOC(=O)N(C)C | > 100 µM | > 100 µM | > 100 µM | > 100 µM | > 100 µM | > 100 µM | – | > 100 µM | > 100 µM | > 100 µM | > 100 µM | > 100 µM |
| CC(=O)OCC1OC(Nc2ncc(-c3ccc(C)cc3)s2)C(OC(C)=O)C(OC(C)=O)C1OC(C)=O (centres undefined) | > 100 µM | > 100 µM | > 100 µM | > 100 µM | 35.8 µM | > 100 µM | – | > 78.2 µM | > 100 µM | > 100 µM | 62.2 µM | > 100 µM |
| CNC(=S)N/N=C(C)\C(=N/NC(=S)NC)c1ccccc1 | – | > 100 µM | > 100 µM | – | > 100 µM | – | > 100 µM | – | – | > 100 µM | – | – |
| CCCCN1C=CN2c3nc4cc(C)c(C)cc4n3C(C(=O)OC)=C(C(=O)OC)C12 (centres undefined) | > 100 µM | > 100 µM | > 100 µM | > 100 µM | – | > 100 µM | – | > 100 µM | – | > 100 µM | > 100 µM | – |
| CCC(C)C(NC(=O)C(CCCCN)NC(=O)C(NC(=O)C(CCC(N)=O)NC(=O)C(N)CCCNC(=N)N)C(C)CC)C(=O)NC(Cc1c[nH]c2ccccc12)C(=O)NC(Cc1ccccc1)C(=O)NC(CCC(N)=O)C(=O)NC(CC(N)=O)C(=O)NC(CCCNC(=N)N)C(=O)NC(CCCNC(=N)N)C(=O)NC(CCSC)C(=O)NC(CCCCN)C(=O)NC(Cc1c[nH]c2ccccc12)C(=O)NC(CCCCN)C(=O)NC(CCCCN)C(=O)N1CCCC1C(=O)NC(C)C(=O)NC(CCCCN)C(=O)NC(CCCNC(=N)N)C(=O)NC(CCCCN)C(=O)NC(CC(C)C)C(=O)NC(Cc1ccccc1)C(=O)NCC(=O)O (centres undefined) (H-RQIKIWFQNRRMKWKKPAKRKLFG-OH; configuration not given here) | > 25 µM | > 25 µM | > 25 µM | > 25 µM | > 25 µM | > 25 µM | > 25 µM | > 25 µM | > 25 µM | > 25 µM | > 25 µM | – |
| CCCCCC(C[N+]1(C)CCOCC1)C(=O)/C=C/c1ccccc1 (centres undefined) | > 35.3 µM | 25 µM | 69.2 µM | 18 µM | – | 39.3 µM | – | 29.5 µM | 30 µM | 28.1 µM | 28.6 µM | 31.7 µM |
| COc1ccc2c(c1)CC[C@@H]1[C@@H]2CC[C@]2(C)C(=O)/C(=C/c3ccc(OC)c(OC)c3)C[C@@H]12 | – | > 100 µM | > 100 µM | – | > 100 µM | – | > 100 µM | > 100 µM | – | > 100 µM | – | > 100 µM |
| O=C(O)c1nc(-c2ccccn2)c(-c2ccccn2)nc1C(=O)O | > 43.1 µM | > 42.5 µM | 15.3 µM | > 100 µM | – | 21.2 µM | 20.9 µM | 29.9 µM | 11.1 µM | 8.53 µM | 24.6 µM | 4.12 µM |
| C/C(=C1/CCCC2(N=NCC2c2ccccc2)C1=O)c1ccccc1 (centres undefined) | 66.1 µM | > 100 µM | – | 41.4 µM | – | 64.2 µM | – | 42.1 µM | 73.2 µM | 25.3 µM | > 100 µM | – |
| CO[C@H]1[C@@H](O)[C@@H](C)O[C@@H](O[C@H]2CC[C@@]3(C)[C@H](CC[C@@H]4[C@@H]3CC[C@]3(C)[C@@H](C5=CC(=O)OC5)[C@@H](OC(C)=O)C[C@]43O)C2)[C@@H]1O | – | 0.292 µM | 0.0878 µM | 0.756 µM | > 50 µM | 0.152 µM | 0.113 µM | 0.345 µM | > 50 µM | 0.201 µM | – | 1.27 µM |
